Assay [1] can be described thus: Binding affinity to cereblon in human MDA-MB-231 cells assessed as cell growth inhibition measured after 4 days.
Assay [2] is described as follows: Binding affinity to cereblon in human RV4:11/IRMI-2 cells harboring p53 hotspot mutation Y236H/R249G assessed as cell growth inhibition measured after 4 days.
Assay [3] can be described thus: Binding affinity to cereblon in human MDA-MB-468 cells assessed as cell growth inhibition measured after 4 days.
The nature of assay [4]: Binding affinity to cereblon in human RV4:11 cells expressing wild type p53 assessed as cell growth inhibition measured after 4 days.
The nature of assay [5]: Binding affinity to cereblon in human RV4:11/IRMI-2 cells harboring p53 hotspot mutation Y236H/R249G assessed as reduction in cell growth inhibition measured after 4 days in presence of 10 uM lenalidomide.
Assay [6] can be described thus: Binding affinity to cereblon in human RV4:11 cells expressing wild type p53 assessed as reduction in cell growth inhibition measured after 4 days in presence of 100 uM lenalidomide.
Assay [7] in a line: Binding affinity to cereblon in human RV4:11 cells expressing wild type p53 assessed as reduction in cell growth inhibition measured after 4 days in presence of 10 uM lenalidomide.
A short description of assay [8]: Binding affinity to cereblon in human MDA-MB-231 cells assessed as reduction in cell growth inhibition measured after 4 days in presence of 100 uM of lenalidomide.
Assay [9] can be described thus: Binding affinity to cereblon in human MDA-MB-231 cells assessed as reduction in cell growth inhibition measured after 4 days in presence of 10 uM of lenalidomide.
Assay [10] in a line: Binding affinity to cereblon in human RV4:11 cells expressing wild type p53 assessed as reduction in cell growth inhibition measured after 4 days in presence of 30 uM lenalidomide.
A short description of assay [11]: Binding affinity to cereblon in human MDA-MB-468 cells assessed as reduction in cell growth inhibition measured after 4 days in presence of 10 uM lenalidomide.
A short description of assay [12]: Binding affinity to cereblon in human MDA-MB-468 cells assessed as reduction in cell growth inhibition measured after 4 days in presence of 100 uM lenalidomide.
A short description of assay [13]: Binding affinity to cereblon in human RV4:11/IRMI-2 cells harboring p53 hotspot mutation Y236H/R249G assessed as reduction in cell growth inhibition measured after 4 days in presence of 30 uM lenalidomide.
Assay [14] can be described thus: Binding affinity to cereblon in human RV4:11/IRMI-2 cells harboring p53 hotspot mutation Y236H/R249G assessed as reduction in cell growth inhibition measured after 4 days in presence of 100 uM lenalidomide.
Assay [15] is described as follows: Binding affinity to cereblon in human MDA-MB-468 cells assessed as reduction in cell growth inhibition measured after 4 days in presence of 30 uM lenalidomide.
The nature of assay [16]: Binding affinity to cereblon in human MDA-MB-231 cells assessed as reduction in cell growth inhibition measured after 4 days in presence of 30 uM of lenalidomide.

For `CNC(=O)[C@@H]1NC2(CCCCC2)[C@@]2(C(=O)Nc3cc(Cl)ccc32)[C@H]1c1cccc(Cl)c1F` [US8629141, 21], the IC50 in assay [1], in assay [2] and in assay [3] was above 10000 nM throughout.

With `O=C1CCC(N2Cc3c(CCCCCNC(=O)c4ccc(NC(=O)[C@@H]5NC6(CCCCC6)[C@@]6(C(=O)Nc7cc(Cl)ccc76)[C@H]5c5cccc(Cl)c5F)cc4)cccc3C2=O)C(=O)N1` (stereo partly specified), the half-inhibitory concentration (IC50) is 5.5 nM in assay [4], above 10000 nM in assay [1], above 10000 nM in assay [2] and above 10000 nM in assay [3].

As for `O=C1CCC(N2Cc3c(CCCCCNC(=O)[C@@H]4NC5(CCCCC5)[C@@]5(C(=O)Nc6cc(Cl)ccc65)[C@H]4c4cccc(Cl)c4F)cccc3C2=O)C(=O)N1` (stereo partly specified), the IC50 in assay [5] came out at 168 nM; in assay [6], 496 nM; in assay [7], 96 nM; in assay [4], 2 nM; in assay [8], 2140 nM; in assay [9] it was 623 nM. Further, the 50% inhibitory concentration (IC50) in assay [10] was 211 nM; in assay [11], 419 nM; in assay [12], 2070 nM; in assay [13] it was 400 nM; in assay [14], 982 nM; in [2] it was 3.1 nM. The IC50 turned out to be 964 nM in assay [15] and 1370 nM in assay [16].

As a reminder, the IC50 is the concentration needed to halve the response being measured.
